Assay results taken from patent publication US20180271869A1, “TREATMENT OF ANXIETY DISORDERS AND AUTISM SPECTRUM DISORDERS” (Rugen Holdings (Cayman) Limited, priority 2014, published 2018).
Entries after “also recorded” stand apart in the source; their conditions may differ.

Key:
[1] = Mathur et al. 2008; cited from earlier work
[2] = single dose subcutaneous, highest dose tested; Iijima et al. 2010; cited from earlier work
wild type mice = experiment: Marble Burying Test; assay type: in vivo, mouse; conditions: for number of marbles buried: vs vehicle, p<0.001
Method: The Marble Burying Test was conducted as previously described by C. L. Broekkamp et al., Eur. J. Pharmacol. 1986, 126, 223-229. Mice exposed to novel object (marbles) will bury them in the sawdust floor covering. Anxiolytics decrease the number of marbles buried at non-sedative doses. Mice were individually placed in transparent plastic cages (33×21×18 cm) with 5 cm of sawdust on the floor 25 marbles grouped in the center of the cage. The cage was covered with an inverted plastic cage. Each test cage, together with the marbles, was impregnated with mouse odor before-hand by leaving 10 mice in the cage for 15 minutes. These mice then played no further role in the experiment. The number of marbles covered by sawdust (⅔ or more) was counted at the end of a 30-minute test. Twelve mice were studied per group. The test was performed blind (test substances versus vehicle). Clobazam (8 mg/kg i.p.), administered 40 minutes before the test, was used as reference substance. Data with the test substances were analyzed by comparing treated groups with vehicle control using Kruskall-Wallis test followed by Mann-Whitney U tests. Data with the reference substance were analyzed using Mann-Whitney U tests.

wild-type mice = experiment: Elevated Plus Maze; assay type: in vivo, mouse; conditions: for time spent in the open arms: vs vehicle
Source text: The Elevated Plus Maze, which detects anxiolytic activity, follows that described by S. L. Handley and S. Mithani Naunyn. Schmied. Arch. Pharmacol. 1984, 327, 1-5. Rodents avoid open spaces (the open arms of an elevated plus-maze). Anxiolytics increase exploratory activity in the open arms, as indicated by increased time spent on the open arms and/or by increased % open-arm entries. The maze consists of 4 arms of equal length and width (14×5 cm) arranged in the form of a plus sign (+). Two opposite arms are enclosed by 12 cm high walls (closed arms). The 2 other arms have no walls (open arms). The maze is raised approximately 60 cm above the floor. A mouse was placed in the center of the plus-maze and left to explore for 5 minutes. The number of entries into the open and closed arms and the time spent on the open arms were recorded. The percentage of open arm entries (open arm entries/total arm entries×100) was calculated. Ten mice were studied per group. The test was performed blind (test substances versus vehicle). Data with the test substances were analyzed by comparing treated groups (7 groups except for the reference substance) with vehicle control using one-way ANOVA followed by post-hoc Dunnett's tests. Data with the reference substance were analyzed using unpaired Student's t tests.

Sapap3 knock-out mice = experiment: Novelty Phobia Test in Sapap3 knock-out mice; assay type: in vivo, mouse; conditions: for novelty phobia (number of touch bouts), dose dependence: single i.p. administration
Method: (§1) Animals. Shank3 knockout mice and Sapap3 knockout mice were purchased from Duke University. The animals were raised in a SPF environment according to AALAC guidelines. The breeding conditions and genotyping method were the same as described in J. M. Welch et al., Nature 2007; 448(7156):894-900, and in J. Peca et al., Nature 2011;472(7344):437-442. Homozygous knockout mice of 4 to 8 weeks of age were used in behavioral assays.
The test compounds were dissolved in a small volume of DMSO and diluted saline and administered intraperitoneally (i.p.) to 4 to 8 week old mice. […]
The behavioral testing apparatus was a rectangular black Plexiglas box, with no top or bottom (50 cm long, 26 cm wide and 15 cm tall). The chambers of the testing apparatus were cleaned and fresh paper chip bedding was added between tests. Behavioral tests were conducted between 10:00 am and 1:00 pm in dim light. Mice were brought to the experiment room in their home cages and administered intraperitoneally with drugs or vehicle in a volume of 10 ml/kg. […] After this habituation period, a novel object (e.g., a toy ball of 3 cm in diameter with spikes) was introduced to the center of the chamber for 5 min. For the entire 15 min that the mouse spent in the chamber, video was recorded and analyzed with AnyMaze software (purchased from Stoelting Co.). The total distance traveled during the entire 15 min and the bouts that the mice touched the novel object during the last 5 min were measured. Statistical significance between two groups was determined by t test. In all statistical measures, the criterion for significance was set at p<0.05.

Shank3 knock-out mice = experiment: Novelty Phobia Test in Shank3 knock-out mice; assay type: in vivo, mouse; conditions: for novelty phobia (number of touch bouts): vs vehicle, p<0.05
Method: as §1
The test compounds were dissolved in a small volume of DMSO and diluted saline and administered intraperitoneally (i.p.) to 4 to 8 week old mice. About 30-60 minutes after dosing, the mice were subjected to a behavioral test as described below.
The behavioral testing apparatus was a rectangular black Plexiglas box, with no top or bottom (50 cm long, 26 cm wide and 15 cm tall). The chambers of the testing apparatus were cleaned and fresh paper chip bedding was added between tests. Behavioral tests were conducted between 10:00 am and 1:00 pm in dim light. Mice were brought to the experiment room in their home cages and administered intraperitoneally with drugs or vehicle in a volume of 10 ml/kg. About 30 to 60 min after drug administration, the mice were placed into the chamber and allowed to free play for 10 min. After this habituation period, a novel object (e.g., a toy ball of 3 cm in diameter with spikes) was introduced to the center of the chamber for 5 min. For the entire 15 min that the mouse spent in the chamber, video was recorded and analyzed with AnyMaze software (purchased from Stoelting Co.). The total distance traveled during the entire 15 min and the bouts that the mice touched the novel object during the last 5 min were measured. Statistical significance between two groups was determined by t test. In all statistical measures, the criterion for significance was set at p<0.05.

human NR1/NR2A [3] = target: T1, human NR1/NR2A (Homo sapiens, UniProt Q12879); conditions: from L. Mony et al., Br. J. Pharmacol. 2009; read-out: hNR2A IC50; cited from earlier work
T1 construct: expressed in transfected cells
T1 sequence (Q12879 23-1464, other chains not shown): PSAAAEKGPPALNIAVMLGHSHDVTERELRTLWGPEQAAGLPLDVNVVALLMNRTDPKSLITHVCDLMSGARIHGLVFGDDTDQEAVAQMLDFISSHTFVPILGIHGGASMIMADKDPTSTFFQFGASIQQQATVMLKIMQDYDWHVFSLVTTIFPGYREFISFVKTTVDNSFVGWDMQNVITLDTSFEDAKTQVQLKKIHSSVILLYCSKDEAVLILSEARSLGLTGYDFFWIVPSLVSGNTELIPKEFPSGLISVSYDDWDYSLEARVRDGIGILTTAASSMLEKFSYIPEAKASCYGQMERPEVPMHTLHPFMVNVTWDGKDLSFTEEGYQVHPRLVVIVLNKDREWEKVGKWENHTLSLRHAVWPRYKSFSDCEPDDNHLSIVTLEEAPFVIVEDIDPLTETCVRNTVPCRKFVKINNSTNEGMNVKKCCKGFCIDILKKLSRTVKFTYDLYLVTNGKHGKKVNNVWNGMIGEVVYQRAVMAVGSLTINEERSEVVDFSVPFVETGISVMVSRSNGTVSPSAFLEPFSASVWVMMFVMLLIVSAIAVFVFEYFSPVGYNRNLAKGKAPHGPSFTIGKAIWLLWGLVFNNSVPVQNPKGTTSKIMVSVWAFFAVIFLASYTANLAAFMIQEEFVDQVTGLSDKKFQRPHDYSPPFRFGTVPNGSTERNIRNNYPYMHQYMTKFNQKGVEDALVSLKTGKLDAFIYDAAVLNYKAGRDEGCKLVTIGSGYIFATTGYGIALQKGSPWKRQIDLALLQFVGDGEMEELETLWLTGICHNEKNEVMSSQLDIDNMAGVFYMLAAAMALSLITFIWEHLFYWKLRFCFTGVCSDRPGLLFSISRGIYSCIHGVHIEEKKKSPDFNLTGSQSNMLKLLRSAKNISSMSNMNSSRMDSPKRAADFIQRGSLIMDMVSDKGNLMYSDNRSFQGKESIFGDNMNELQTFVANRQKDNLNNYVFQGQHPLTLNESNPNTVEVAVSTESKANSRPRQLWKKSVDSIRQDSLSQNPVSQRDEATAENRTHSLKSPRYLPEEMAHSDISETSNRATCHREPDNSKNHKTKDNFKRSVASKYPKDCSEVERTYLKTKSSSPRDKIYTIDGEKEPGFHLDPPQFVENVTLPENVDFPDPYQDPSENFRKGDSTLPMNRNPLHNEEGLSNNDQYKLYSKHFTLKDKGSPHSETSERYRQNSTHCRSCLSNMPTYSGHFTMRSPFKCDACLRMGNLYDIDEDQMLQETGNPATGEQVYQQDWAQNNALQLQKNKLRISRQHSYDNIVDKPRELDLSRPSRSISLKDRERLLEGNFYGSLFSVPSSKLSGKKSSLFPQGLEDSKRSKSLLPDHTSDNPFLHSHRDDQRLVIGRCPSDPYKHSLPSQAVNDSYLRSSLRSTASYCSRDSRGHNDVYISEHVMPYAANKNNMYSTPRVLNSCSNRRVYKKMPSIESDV

human NR1/NR2B = target: T2, human NR1/NR2B (Homo sapiens, UniProt Q05586+Q13224); experiment: NR2B antagonist activity, Fluo-4 calcium influx assay in HEK293 cells; assay type: cell-based; conditions: glutamate 100 μM and glycine 50 μM, Fluo-4 fluorescence, read-out: hNR2B IC50
T2 construct: expressed in transfected cells
T2 sequence (Q13224 27-1484, other chains not shown): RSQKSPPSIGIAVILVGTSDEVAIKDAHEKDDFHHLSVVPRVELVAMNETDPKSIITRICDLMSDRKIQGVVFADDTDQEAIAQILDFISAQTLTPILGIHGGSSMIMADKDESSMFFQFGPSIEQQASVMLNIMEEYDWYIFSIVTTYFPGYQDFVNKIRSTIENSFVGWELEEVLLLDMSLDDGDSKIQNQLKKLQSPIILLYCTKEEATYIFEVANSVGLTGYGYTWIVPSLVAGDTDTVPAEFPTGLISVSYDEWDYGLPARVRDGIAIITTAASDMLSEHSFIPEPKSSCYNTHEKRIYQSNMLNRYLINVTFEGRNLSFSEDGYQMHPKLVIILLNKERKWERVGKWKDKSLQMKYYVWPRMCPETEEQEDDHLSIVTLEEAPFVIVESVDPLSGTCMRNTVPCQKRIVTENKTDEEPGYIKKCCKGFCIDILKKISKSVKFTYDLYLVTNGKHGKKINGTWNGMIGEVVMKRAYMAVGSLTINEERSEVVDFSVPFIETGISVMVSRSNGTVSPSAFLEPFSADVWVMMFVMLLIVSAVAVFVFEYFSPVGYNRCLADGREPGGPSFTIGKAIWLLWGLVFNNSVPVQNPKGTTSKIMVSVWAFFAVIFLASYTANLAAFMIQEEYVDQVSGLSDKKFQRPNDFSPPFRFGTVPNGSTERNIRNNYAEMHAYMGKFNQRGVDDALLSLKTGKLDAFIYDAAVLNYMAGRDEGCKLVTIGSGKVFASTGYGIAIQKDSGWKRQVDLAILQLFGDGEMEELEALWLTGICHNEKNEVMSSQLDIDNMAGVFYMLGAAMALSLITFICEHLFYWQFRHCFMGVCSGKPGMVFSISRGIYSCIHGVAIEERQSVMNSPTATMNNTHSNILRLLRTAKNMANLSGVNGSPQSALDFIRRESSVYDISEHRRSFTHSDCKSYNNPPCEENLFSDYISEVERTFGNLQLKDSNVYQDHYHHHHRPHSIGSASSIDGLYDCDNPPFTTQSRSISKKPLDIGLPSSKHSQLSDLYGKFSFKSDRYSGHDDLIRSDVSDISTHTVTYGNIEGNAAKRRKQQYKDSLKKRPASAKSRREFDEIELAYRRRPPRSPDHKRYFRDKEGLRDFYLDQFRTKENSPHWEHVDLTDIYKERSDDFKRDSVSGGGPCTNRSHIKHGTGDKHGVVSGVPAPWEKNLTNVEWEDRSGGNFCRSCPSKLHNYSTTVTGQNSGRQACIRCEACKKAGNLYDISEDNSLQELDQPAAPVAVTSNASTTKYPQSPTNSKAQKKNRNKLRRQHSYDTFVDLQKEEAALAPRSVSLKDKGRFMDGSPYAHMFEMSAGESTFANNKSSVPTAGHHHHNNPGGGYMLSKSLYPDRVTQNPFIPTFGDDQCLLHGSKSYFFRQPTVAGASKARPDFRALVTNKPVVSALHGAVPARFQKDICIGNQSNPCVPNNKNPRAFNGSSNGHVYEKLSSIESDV
Method: (§2) HEK293 cell lines stably expressing cloned human NR1/NR2B and NR1/NR2A, respectively, were established according to standard previously described methods (Hansen et al., Comb. Chem High Throughput Screen. 11:304, 2008). Activation of the NR2A or NR2B subtype of NMDA receptor with glutamate as an agonist and glycine co-agonist on these cells results in calcium influx, which can be monitored with fluorescent indicator Fluo-4.
(§3) For experiments, the cells were seeded onto poly-D-lysine-coated 96-well black plates with clear bottom (Corning) at a density of ˜50,000 cells/well. After overnight culture, the growth medium was removed from the wells and the cells were incubated at 37° C. for 60 min in Hanks buffer containing 4 μM fluo-4-AM (Invitrogen) and 0.1% bovine serum albumin (BSA). After dye-loading, the cells were washed three times with Hanks buffer and incubated for 10 min at room temperature with various concentrations of test compounds prepared in Hanks buffer with 0.1% BSA. The cell plates were placed onto FDSS μCell fluorescence reader (Hamamatsu). After 20 sec reading of background fluorescence, agonist glutamate at final 100 μM and co-agonist glycine at final 50 μM were added to the cells to activate the receptor, and the resulting fluorescence changes were recorded and quantified.

human NR1/NR2A [4] = target: T3, human NR1/NR2A (Homo sapiens, UniProt Q05586+Q12879); experiment: NR2A antagonist activity, Fluo-4 calcium influx assay in HEK293 cells; assay type: cell-based; conditions: glutamate 100 μM and glycine 50 μM, Fluo-4 fluorescence, read-out: hNR2A IC50
T3 construct: expressed in transfected cells
T3 sequence (Q12879 23-1464, other chains not shown): as the sequence (Q12879 23-1464, other chains not shown) above
Source text: as §2, with “Fluo-4. A cell based assay has been implemented to evaluate the effect of a compound on NR2A and NR2B receptors by measuring the fluorescent changes (Hansen et al., Comb. Chem High Throughput Screen. 11:304, 2008).” for “Fluo-4.”
as §3, with “HEK293 cells stably expressing NR2A or NR2B receptors were cultured at 37° C. in a humidified CO2 incubator in DMEM supplemented with 10% fetal bovine serum (FBS) (Hyclone), 10 μM MK801 (Sigma-Aldrich) and 50 μM AP-5 (Tocris). For” for “For”, “quantified. Based on the changes in fluorescence intensity, the pharmacological effect of test compounds were analyzed and the IC50 values derived from a non-linear least squares fitting of the concentration-dependent response to a standard logistic equation using Prism (Graphpad, Inc):” for “quantified.”
Amplitude=Max Amplitude/(1+(IC50/[antagonist])°).

[5] = 8 mg/kg i.p. 30 minutes before testing
[6] = each test dose, single i.p., vs vehicle
[7] = 5 mg/kg i.p. once/day for 6 days, tested 30-60 min after last dose

In the case of C[C@@H](CN1CCC(Cc2ccccc2)CC1)[C@@H](O)c1ccc(O)cc1 [Ro25-6981], the “activity in the elevated plus maze test” value [1] is given as “inactive” and the “effect in the marble burying test” value [2] is given as “modest efficacy”.
In the case of CN1C(=O)CC(=O)N(c2ccccc2)c2cc(Cl)ccc21 [clobazam, reference compound], the “number of marbles buried” value (wild type mice; [5]) is reported as “significantly different from that of vehicle” and the “time spent in the open arms” value (wild-type mice; [5]) is reported as “significantly different from that of vehicle”.
In the case of Cc1ccc(COC(=O)N2CC[C@H](CNc3ncccn3)[C@H](F)C2)cc1 (racemic) [Compound C, (±)-cis-4-methylbenzyl 3-fluoro-4-[(pyrimidin-2-ylamino)methyl]piperidine-1-carboxylate], the “novelty phobia (number of touch bouts)” value (Sapap3 knock-out mice; [6]) is reported as “significantly improved” and the “novelty phobia (number of touch bouts), dose dependence” value (from here on “novelty phobia … dose dependence”) (Sapap3 knock-out mice) is reported as “dose-dependently improved novelty phobia”.
In the case of C[C@@H]([C@@H](O)c1ccc(O)cc1)N1CCC(O)(c2ccccc2)CC1 [Compound A, (+)-(1S,2S)-1-(4-hydroxyphenyl)-2-(4-hydroxy-4-phenylpiperidino)-1-propanol, reference compound], the “novelty phobia (number of touch bouts)” value (Shank3 knock-out mice; [7]) is given as “significantly improved novelty phobia” and the IC50 (human NR1/NR2A [3]) is given as ≥ 10 µM.
For Cc1ccc(COC(=O)N2CC[C@@H](CNc3ncccn3)[C@@H](F)C2)cc1 [(3R,4S)-4-methylbenzyl 3-fluoro-4-[(pyrimidin-2-ylamino)methyl]piperidine-1-carboxylate], the IC50 (human NR1/NR2B) was 0.018 µM and the IC50 (human NR1/NR2A [4]) was > 10 µM.
With Cc1ccc(COC(=O)N2CC[C@H](CNc3ncccn3)[C@H](F)C2)cc1 [Compound D, (−)-(3S,4R)-cis-4-methylbenzyl 3-fluoro-4-[(pyrimidin-2-ylamino)methyl]-piperidine-1-carboxylate] the “number of marbles buried” value (wild type mice; 1 mg/kg i.p. 20 minutes before the test) was “significantly different from that of vehicle”, the “number of marbles buried, dose dependence” value (wild type mice; single i.p. dose 20 minutes before 30-minute test session) was “dose-dependently reduced the number of marbles buried” and the “time spent in the open arms” value (wild-type mice; 3 and 10 mg/kg i.p. 20 minutes before the test, p<0.01/0.001) was “significantly different from that of vehicle”. The “time spent in the open arms, dose dependence” value (wild-type mice; single i.p. dose 20 minutes before the test) was “maximal efficacy approaching that of the benzodiazepine control compound clobazam; also recorded: dose-dependently increased the amount of time spent”, the IC50 (human NR1/NR2B) was 0.011 µM and the “novelty phobia (number of touch bouts)” value (Sapap3 knock-out mice; 1 mg/kg i.p. 20 minutes prior to testing) was “improved novelty phobia”. The IC50 (human NR1/NR2A [4]) was > 10 µM.
With FC(F)(F)c1ccc(C(F)(F)CN2CCC(Nc3ncnc4[nH]ncc34)CC2)cc1 [Compound B, N-(1-(2,2-difluoro-2-(4-trifluoromethyl)phenyl-ethyl)piperidin-4-yl)-1H-pyrazolo[3,4-d]pyrimidin-4-amine] the “novelty phobia (number of touch bouts)” value (Shank3 knock-out mice; [7]) was “significantly improved novelty phobia”, the “novelty phobia (number of touch bouts)” value (Shank3 knock-out mice; 1 and 5 mg/kg single i.p.) was “significantly improved novelty phobia” and the “novelty phobia … dose dependence” value (Shank3 knock-out mice; single i.p. administration 30-60 min before testing) was “dose-dependently improved novelty phobia”. For the same compound, the “novelty phobia (number of touch bouts)” value (Sapap3 knock-out mice; [6]) was “significantly improved”, the “novelty phobia … dose dependence” value (Sapap3 knock-out mice) was “dose-dependently improved novelty phobia” and the IC50 (human NR1/NR2A [4]) was > 10 µM.
